Experimental data published in patent US20250032625A1, “HETEROBIFUNCTIONAL MOLECULES AS TEAD INHIBITORS” (Merck Patent GmbH, priority 2021, published 2025).
Read-outs that look alike come from different tables or passages of the source.

Tests used:
TEAD1 in SK-HEP1 cells = TEAD1 in SK-HEP1 cells (Homo sapiens (Human), UniProt P28347); experiment: TEAD degradation in SK-HEP1 cell line (immunofluorescence); type: cell-based
Method: (§1) Degradation of TEAD isoform TEAD1 by exemplary compounds which has been determined at different time points in two different cell lines, SK-HEP1 and NCI-H226: For the assay, SK-HEP1 (ATCC HTB-52) and NCI-H226 (ATCC CRL-5826) cells were treated in duplicates with the test compounds in a 10-point dose, 1:3 dilution steps, with the top concentration starting at 30 uM (final concentration in assay). After either 16 or 24 hour incubation at 37° C., 95% rH, and 5% CO2, the cells were fixed with 4% PFA and TEAD1 levels were probed using immunofluorescence. The primary antibody used was Anti-TEF1 (BD, 610293) and the secondary antibody used was Alexa Fluor® 488 Goat Anti-Mouse IgG (H+L) (Molecular Probes, A-11001). Finally, the cell nuclei were co-stained by Hoechst 33258 (Invitrogen, H-3569) and imaged using a high content imager. The amount of TEAD degradation was determined by quantifying the fluorescence intensity levels of Anti-TEF1 in each individual cell per well. DC50 was calculated using curve fitting software Genedata Screener. Cell media: The SK-HEP1 cells were cultured in the following media: MEM, +10% FCS, +1× GlutaMAX, +100 μM NEAA, +10 mM HEPES, +0.5% Pen/Strep. The NCI-H226 cells were cultured in the following media: RPMI 1640, +10% FBS, +1× GlutaMAX, +10 mM HEPES, +0.5% Pen/Strep.

TEAD1 in NCI-H226 cells = TEAD1 in NCI-H226 cells (Homo sapiens (Human), UniProt P28347); experiment: TEAD degradation in NCI-H226 cell line (immunofluorescence); type: cell-based
Sequence of TEAD1 in NCI-H226 cells (P28347 whole entry): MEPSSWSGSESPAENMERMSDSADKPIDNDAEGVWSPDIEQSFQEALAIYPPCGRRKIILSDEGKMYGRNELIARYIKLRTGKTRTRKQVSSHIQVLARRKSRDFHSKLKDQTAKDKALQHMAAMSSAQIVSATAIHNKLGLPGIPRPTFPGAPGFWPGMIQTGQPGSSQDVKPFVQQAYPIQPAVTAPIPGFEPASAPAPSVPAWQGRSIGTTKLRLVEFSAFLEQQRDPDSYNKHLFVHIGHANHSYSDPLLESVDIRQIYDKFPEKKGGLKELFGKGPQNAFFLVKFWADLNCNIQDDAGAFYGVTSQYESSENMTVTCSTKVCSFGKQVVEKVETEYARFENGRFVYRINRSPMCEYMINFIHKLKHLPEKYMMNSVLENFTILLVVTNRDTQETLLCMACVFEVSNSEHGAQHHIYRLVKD
Method: as §1

[1] = 24 hours, ranges, read-out: DC50 SK-HEP1
[2] = 24 hours, ranges, read-out: DC50 NCI-H226
[3] = 24 h incubation, read-out: DC50 SK-HEP1 24 h
[4] = 24 h incubation, read-out: DC50 NCI-H226 24 h

Sequence of TEAD1 in SK-HEP1 cells (P28347 whole entry, canonical isoform): as the sequence (P28347 whole entry) above

DC50 (TEAD1 in SK-HEP1 cells; [1]) [µM] | DC50 (TEAD1 in NCI-H226 cells; [2]) [µM] | DC50 (TEAD1 in SK-HEP1 cells; [3]) [µM] | DC50 (TEAD1 in NCI-H226 cells; [4]) [µM] | DC50 (TEAD1 in SK-HEP1 cells; 16 h incubation, read-out: DC50 SK-HEP1 16 h) [µM] | DC50 (TEAD1 in NCI-H226 cells; 16 h incubation, read-out: DC50 NCI-H226 16 h) [µM] | Compound
< 0.1 | 0.1 to 1 | – | – | – | – | Cn1cc2c3cc(C(=O)NCCOCCOCCOCCOCCNc4cccc5c4C(=O)N(C4CCC(=O)NC4=O)C5=O)ccc3n(CC3CCC(C(F)(F)F)CC3)c2n1 (stereo not drawn) [Compound 99, N-(14-{[2-(2,6-dioxopiperidin-3-yl)-1,3-dioxo-2,3-dihydro-1H-isoindol-4-yl]amino}-3,6,9,12-tetraoxatetradecan-1-yl)-2-methyl-8-{[4-(trifluoromethyl)cyclohexyl]methyl}-2H,8H-pyrazolo[3,4-b]indole-5-carboxamide]
0.1 to 1 | 0.1 to 1 | 0.25 | 0.6 | – | – | Cn1cc2c3cc(C(=O)NCCOCCOCCOCCOCCOc4cccc5c4C(=O)N(C4CCC(=O)NC4=O)C5=O)ccc3n(-c3ccc(C(F)(F)F)cc3)c2n1 (stereo not drawn) [Compound 16, N-(14-{[2-(2,6-dioxopiperidin-3-yl)-1,3-dioxo-2,3-dihydro-1H-isoindol-4-yl]oxy}-3,6,9,12-tetraoxatetradecan-1-yl)-2-methyl-8-[4-(trifluoromethyl)phenyl]-2H,8H-pyrazolo[3,4-b]indole-5-carboxamide]
0.1 to 1 | 0.1 to 1 | 0.19 | 0.3 | – | – | Cc1ncsc1-c1ccc(CNC(=O)[C@@H]2C[C@@H](O)CN2C(=O)[C@@H](NC(=O)CCCCCCCCCNC(=O)c2ccc3c(c2)c2cn(C)nc2n3-c2ccc(C(F)(F)F)cc2)C(C)(C)C)cc1 [Compound 20, (2S,4R)-1-[(2S)-3,3-dimethyl-2-[10-({2-methyl-8-[4-(trifluoromethyl)phenyl]-2H,8H-pyrazolo[3,4-b]indol-5-yl}formamido)decanamido]butanoyl]-4-hydroxy-N-{[4-(4-methyl-1,3-thiazol-5-yl)phenyl]methyl}pyrrolidine-2-carboxamide]
1 to 3 | 1 to 3 | 1.1 | – | – | – | Cc1ncsc1-c1ccc(CNC(=O)[C@@H]2C[C@@H](O)CN2C(=O)[C@@H](NC(=O)COCCOCCOCCOCCOCCOCCNC(=O)c2ccc3c(c2)c2cn(C)nc2n3-c2ccc(C(F)(F)F)cc2)C(C)(C)C)cc1 [Compound 32, (2S,4R)-1-[(2S)-3,3-dimethyl-2-[20-({2-methyl-8-[4-(trifluoromethyl)phenyl]-2H,8H-pyrazolo[3,4-b]indol-5-yl}formamido)-3,6,9,12,15,18-hexaoxaicosanamido]butanoyl]-4-hydroxy-N-{[4-(4-methyl-1,3-thiazol-5-yl)phenyl]methyl}pyrrolidine-2-carboxamide]
0.1 to 1 | 0.1 to 1 | – | – | – | – | Cc1ncsc1-c1ccc(CNC(=O)[C@@H]2C[C@@H](O)CN2C(=O)[C@@H](NC(=O)CCCCCCOCCOCCOCCNC(=O)c2ccc3c(c2)c2cn(C)nc2n3-c2ccc(C(F)(F)F)cc2)C(C)(C)C)cc1 [Compound 60, (2S,4R)-1-[(2S)-3,3-dimethyl-2-[7-(2-{2-[2-({2-methyl-8-[4-(trifluoro-methyl)phenyl]-2H,8H-pyrazolo[3,4-b]indol-5-yl}formamido)ethoxy]-ethoxy}ethoxy)heptanamido]butanoyl]-4-hydroxy-N-{[4-(4-methyl-1,3-thiazol-5-yl)phenyl]methyl}pyrrolidine-2-carboxamide]
< 0.1 | 0.1 to 1 | – | – | – | – | CN(CCOCCOCCOCCOCCNC(=O)c1ccc2c(c1)c1cn(C)nc1n2-c1ccc(C(F)(F)F)cc1)c1cccc2c1C(=O)N(C1CCC(=O)NC1=O)C2=O (stereo not drawn) [Compound 80, N-{2-[2-(2,6-dioxopiperidin-3-yl)-1,3-dioxo-2,3-dihydro-1H-isoindol-4-yl]-5,8,11,14-tetraoxa-2-azahexadecan-16-yl}-2-methyl-8-[4-(trifluoromethyl)phenyl]-2H,8H-pyrazolo[3,4-b]indole-5-carboxamide]
9 to 30 | 0.1 to 1 | – | – | – | – | Cn1cc2c3cc(C(=O)NCCOCCOCCOCCOCCNc4cccc5c4CN(C4CCC(=O)NC4=O)C5=O)ccc3n(-c3ccc(C(F)(F)F)cc3)c2n1 (stereo not drawn) [Compound 43, N-(14-{[2-(2,6-dioxopiperidin-3-yl)-1-oxo-2,3-dihydro-1H-isoindol-4-yl]amino}-3,6,9,12-tetraoxatetradecan-1-yl)-2-methyl-8-[4-(trifluoromethyl)phenyl]-2H,8H-pyrazolo[3,4-b]indole-5-carboxamide]
< 0.1 | < 0.1 | 0.04 | 0.07 | – | – | Cn1cc2c3cc(C(=O)NCC#Cc4ccc(N5CCN(CCCC(=O)Nc6ccc7c(c6)CN(C6CCC(=O)NC6=O)C7=O)CC5)nc4)ccc3n(-c3ccc(C(F)(F)F)cc3)c2n1 (stereo not drawn) [Compound 19, N-(3-{6-[4-(3-{[2-(2,6-dioxopiperidin-3-yl)-1-oxo-2,3-dihydro-1H-isoindol-5-yl]carbamoyl}propyl)piperazin-1-yl]pyridin-3-yl}prop-2-yn-1-yl)-2-methyl-8-[4-(trifluoromethyl)phenyl]-2H,8H-pyrazolo[3,4-b]indole-5-carboxamide]
3 to 9 | 9 to 30 | 3.5 | 10 | – | – | Cn1cc2c3cc(C(=O)NCCOCCOCCOCCOCCNC(=O)COc4ccc5c(c4)CCCN5C(=O)CCl)ccc3n(-c3ccc(C(F)(F)F)cc3)c2n1 [Compound 31, 2-{[1-(2-chloroacetyl)-1,2,3,4-tetrahydroquinolin-6-yl]oxy}-N-[14-({2-methyl-8-[4-(trifluoromethyl)phenyl]-2H,8H-pyrazolo[3,4-b]indol-5-yl}formamido)-3,6,9,12-tetraoxatetradecan-1-yl]acetamide]
< 0.1 | 0.1 to 1 | – | – | – | – | Cn1cc2c3cc(C(=O)NCCOCCOCCOCCOCCNc4ccc5c(c4)C(=O)N(C4CCC(=O)NC4=O)C5=O)ccc3n(-c3ccc(C(F)(F)F)cc3)c2n1 (stereo not drawn) [Compound 42, N-(14-{[2-(2,6-dioxopiperidin-3-yl)-1,3-dioxo-2,3-dihydro-1H-isoindol-5-yl]amino}-3,6,9,12-tetraoxatetradecan-1-yl)-2-methyl-8-[4-(trifluoro-methyl)phenyl]-2H,8H-pyrazolo[3,4-b]indole-5-carboxamide]
0.1 to 1 | 1 to 3 | 1 | 1 | 1 | 1 | CC(=O)O[C@@H]1C[C@@H](C(=O)N[C@@H](C)c2ccc(-c3scnc3C)cc2)N(C(=O)[C@@H](NC(=O)CCCCCC(=O)NCCOCCOCCNC(=O)c2ccc3c(c2)c2cn(C)nc2n3-c2ccc(C(F)(F)F)cc2)C(C)(C)C)C1 [Compound 25, (3R,5S)-1-[(2S)-3,3-dimethyl-2-{6-[(2-{2-[2-({2-methyl-8-[4-(trifluoromethyl)phenyl]-2H,8H-pyrazolo[3,4-b]indol-5-yl}formamido)ethoxy]ethoxy}ethyl)carbamoyl]hexanamido}butanoyl]-5-{[(1S)-1-[4-(4-methyl-1,3-thiazol-5-yl)phenyl]ethyl]carbamoyl}pyrrolidin-3-yl acetate]
< 0.1 | < 0.1 | – | – | – | – | Cc1ncsc1-c1ccc(CNC(=O)[C@@H]2C[C@@H](O)CN2C(=O)[C@@H](NC(=O)CCCCCc2cn(CCCCCCNC(=O)c3ccc4c(c3)c3cn(C)nc3n4-c3ccc(C(F)(F)F)cc3)nn2)C(C)(C)C)cc1 [Compound 35, (2S,4R)-1-[(2S)-3,3-dimethyl-2-(6-{1-[6-({2-methyl-8-[4-(trifluoromethyl)phenyl]-2H,8H-pyrazolo[3,4-b]indol-5-yl}formamido)hexyl]-1H-1,2,3-triazol-4-yl}hexanamido)butanoyl]-4-hydroxy-N-{[4-(4-methyl-1,3-thiazol-5-yl)phenyl]methyl}pyrrolidine-2-carboxamide]

Compound | DC50 (TEAD1 in SK-HEP1 cells; [1]) [µM] | DC50 (TEAD1 in NCI-H226 cells; [2]) [µM] | DC50 (TEAD1 in SK-HEP1 cells; [3]) [µM] | DC50 (TEAD1 in NCI-H226 cells; [4]) [µM] | DC50 (TEAD1 in SK-HEP1 cells; 16 h incubation, read-out: DC50 SK-HEP1 16 h) [µM] | DC50 (TEAD1 in NCI-H226 cells; 16 h incubation, read-out: DC50 NCI-H226 16 h) [µM]
CCNC(=O)[C@H](Cc1ccccc1)NC(=O)[C@@H]1CCCN1C(=O)[C@@H](NC(=O)[C@H](C)NCCCCCCNC(=O)c1ccc2c(c1)c1cn(C)nc1n2-c1ccc(C(F)(F)F)cc1)C1CCCCC1 [Compound 73, (2S)-2-{[(2S)-1-[(2S)-2-cyclohexyl-2-[(2S)-2-{[6-({2-methyl-8-[4-(trifluoro-methyl)phenyl]-2H,8H-pyrazolo[3,4-b]indol-5-yl}formamido)hexyl]amino}-propanamido]acetyl]pyrrolidin-2-yl]formamido}-N-ethyl-3-phenylpropan-amide] | 3 to 9 | 9 to 30 | – | – | – | –
